Experimental data: patent US4966914A, “Oculoselective beta-blockers as antiglaucoma agents” (E. I. Du Pont de Nemours and Company, priority 1988, dated 1990)
Read-outs that look alike come from different tables or passages of the source.

Key:
[1] = molecular target: T1, ATRIA (Cavia porcellus, UniProt H0W3H1); assay: In vitro potency (pA2), beta-blocking, atria; assay type: cell-based; details: Table 3; atria; read-out: pA2 ATRIA (converted)
T1 construct: ATRIA; from tissue
Description: The in vitro potency (pA2), in vivo potency and duration of action (DOA) of the compounds of the present invention are recorded in Tables 2 to 4. These pharmacological activities were determined using the methods described in U.S. patent 4,582,855 issued Apr.

[2] = Ocular bioavailability in rabbits; assay type: in vivo, New Zealand White Rabbits; details: for Area under the concentration time curve (AUC0-240'), AH / Area under the concentration time curve (AUC0-240'), I-CBC / Area under the concentration time curve (AUC0-240'), cornea: 0-240 min; for Absorption across the cornea: 0.25% Timolol or 0.5% compound 1, topical; for Tmax: rabbit, topical or ocular
Description: The ocular bioavailability of Timolol and compound 1 (monopivaloyl ester prodrug of compound 2) was evaluated in New Zealand White Rabbits. Fifty μL of a solution of 0.25% Timolol or 0.5% compound 1 (both in the same vehicle) were administered onto the cornea of both eyes of 48 rabbits (24 rabbits/compound). At 5, 15, 30, 60, 120, 180, 240, and 360 minutes after dosing, 3 rabbits (6 eyes)/compound were killed. The cornea, aqueous humor (AH), iris-ciliary body complex (I-CBC) were quickly removed from the eyes, weighed and processed to determine tissue levels of Timolol or compound 1 and compound 2.

[3] = tested on: isoproterenol-induced changes in heart rate or diastolic blood pressure; assay: Effect on systemic beta-blockade upon topical administration (isoproterenol-induced changes in heart rate or diastolic blood pressure); assay type: in vivo, Mongrel dogs; details: for Diastolic blood pressure response to isoproterenol: from-to; for Diastolic blood pressure (DBP) / Heart rate (HR): Table 1, 0.5%; for Summary: BP / Summary: BP change / Summary: HR change: Table 1 summary; for Summary: BP: from ISO only to end of experiment; for Summary: BP change / Summary: HR change: given as "down"
Description: Mongrel dogs were anesthetized and control readings were made at -45 and -30 minutes. Following the -30 minute reading, an infusion of isoproterenol (0.5 μg/kg/min) was begun and maintained during the course of the experiment. Two readings of pretreatment isoproterenol responses were made at […] and at zero minutes.
At zero minutes, a 50 μL sample of test compound was administered topically. […] Heart rate was obtained directly from the strip chart recording.

[4] = AH, 0.25% Timolol or 0.5% compound 1
[5] = I-CBC, 0.25% Timolol or 0.5% compound 1
[6] = cornea, 0.25% Timolol or 0.5% compound 1
[7] = 50 μL, 0.25% solution, single topical application
[8] = 15 min post-treatment, isoproterenol infusion
[9] = 30 min post-treatment, isoproterenol infusion
[10] = 45 min post-treatment, isoproterenol infusion
[11] = 60 min post-treatment (dose), isoproterenol infusion
[12] = 75 min post-treatment, isoproterenol infusion
[13] = 90 min post-treatment, isoproterenol infusion
[14] = 105 min post-treatment, isoproterenol infusion
[15] = 120 min post-treatment (dose), isoproterenol infusion
[16] = 135 min post-treatment, isoproterenol infusion
[17] = 150 min post-treatment, isoproterenol infusion
[18] = 165 min post-treatment, isoproterenol infusion
[19] = 180 min post-treatment, isoproterenol infusion
[20] = aqueous humor, AH, 0.25% Timolol or 0.5% compound 1, read-out: Time of peak level in aqueous humor (AH) (converted)
[21] = cornea, 0.25% Timolol or 0.5% compound 1, read-out: Time of peak level in cornea (converted)
[22] = 50 μL, 0.25% solution, single or repeated topical applications

T1 sequence (H0W3H1 1-470): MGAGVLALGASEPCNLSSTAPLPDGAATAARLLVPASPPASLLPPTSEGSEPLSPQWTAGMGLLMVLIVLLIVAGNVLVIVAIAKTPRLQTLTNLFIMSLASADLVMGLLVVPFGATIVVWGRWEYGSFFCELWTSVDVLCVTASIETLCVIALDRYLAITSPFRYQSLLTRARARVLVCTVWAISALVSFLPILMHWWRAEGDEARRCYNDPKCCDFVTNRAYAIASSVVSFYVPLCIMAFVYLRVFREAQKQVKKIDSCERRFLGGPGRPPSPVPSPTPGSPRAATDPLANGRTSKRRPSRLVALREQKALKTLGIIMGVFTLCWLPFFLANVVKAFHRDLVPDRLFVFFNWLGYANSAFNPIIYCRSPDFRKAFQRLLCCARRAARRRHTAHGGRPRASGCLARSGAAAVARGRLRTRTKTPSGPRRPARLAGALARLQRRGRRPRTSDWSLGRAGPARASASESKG

CC(C)C(=O)NCC(C)(C)NCC(O)COC(=O)c1cc(O)c(O)cc1N (centres unmarked)
Kb [1]: 79.4 nM

Cc1cc(O)c(O)cc1C(=O)OCC(O)CNC(C)(C)CNC(=O)C1CCC1 (centres unmarked)
Kb [1]: 5.01 nM

Cc1cc(O)c(O)cc1C(=O)OCC(O)CNC(C)(C)CNC(=O)c1ccoc1 (centres unmarked)
Kb [1]: 25.1 nM

Cc1cc(O)c(O)cc1C(=O)OCC(O)CNC(C)(C)CNC(=O)C1CC1 (centres unmarked)
Kb [1]: 20 nM

Cc1cc(O)c(O)cc1C(=O)OCC(O)CNC(C)(C)CNC(=O)C1CCOC1 (centres unmarked) [Compound 2]
Area under the concentration time curve (AUC0-240'), AH [2, 4]: 27,377 ng/100 μL/min
Area under the concentration time curve (AUC0-240'), I-CBC [2, 5]: 2,981 ng/50 mg/min
Area under the concentration time curve (AUC0-240'), cornea [2, 6]: 95,789 ng/50 mg/min
Stability in rabbit ocular tissues ([2]; rabbit ocular tissues): stable in rabbit ocular tissues

COc1cc(O)c(O)cc1C(=O)OCC(O)CNC(C)(C)CNC(=O)C1CCCCC1 (centres unmarked)
Kb [1]: 25.1 nM

COc1ccccc1C(=O)NCC(C)(C)NCC(O)COC(=O)c1cc(O)c(O)cc1C (centres unmarked)
Kb [1]: 398 nM

COc1ccc(C(=O)NCC(C)(C)NCC(O)COC(=O)c2cc(O)c(O)cc2C)cc1 (centres unmarked)
Kb [1]: 31.6 nM

CC(C)(CNC(=O)C1CCCCC1)NCC(O)COC(=O)c1ccc(O)c(O)c1 (centres unmarked)
Kb [1]: 6.31 nM

CCC(=O)NCC(C)(C)NCC(O)COC(=O)c1cc(O)c(O)cc1C (centres unmarked)
Kb [1]: 10 nM

Cc1cc(O)c(O)cc1C(=O)OCC(O)CNC(C)(C)CNC(=O)Cc1ccccc1 (centres unmarked)
Kb [1]: 100 nM

Cc1cc(O)c(O)cc1C(=O)OCC(O)CNC(C)(C)CNC(=O)c1ccccc1 (centres unmarked)
Kb [1]: 20 nM

COc1cc(O)c(O)cc1C(=O)OCC(O)CNC(C)(C)CNC(=O)C(C)C (centres unmarked) [drawing 30]
Kb [1]: 12.6 nM

Cc1cc(O)c(O)cc1C(=O)OCC(O)CNC(C)(C)CNC(N)=O (centres unmarked) [Me NH2]
Kb [1]: 1.26 nM

CC(=O)NCC(C)(C)NCC(O)COC(=O)c1cc(O)c(O)cc1C (centres unmarked) [Me CH3]
Kb [1]: 25.1 nM

CC(C)(C)NC[C@H](O)COc1nsnc1N1CCOCC1 [Timolol, reference compound]
Antagonism of diastolic blood pressure response to isoproterenol [3, 7]: long lasting antagonism
Effect on heart rate response to isoproterenol [3, 7]: significant inhibitory effect
Diastolic blood pressure response to isoproterenol [3, 7]: 72-107 mmHg
Diastolic blood pressure (DBP) ([3]; 0 min, ISO only): 72 mmHg
Heart rate (HR) ([3]; 0 min, ISO only): 197 bpm
Diastolic blood pressure (DBP) [3, 8]: 93 mmHg
Heart rate (HR) [3, 8]: 175 bpm
Diastolic blood pressure (DBP) [3, 9]: 94 mmHg
Heart rate (HR) [3, 9]: 158 bpm
Diastolic blood pressure (DBP) [3, 10]: 96 mmHg
Heart rate (HR) [3, 10]: 155 bpm
Diastolic blood pressure (DBP) [3, 11]: 99 mmHg
Heart rate (HR) [3, 11]: 157 bpm
Diastolic blood pressure (DBP) [3, 12]: 102 mmHg
Heart rate (HR) [3, 12]: 157 bpm
Diastolic blood pressure (DBP) [3, 13]: 103 mmHg
Heart rate (HR) [3, 13]: 152 bpm
Diastolic blood pressure (DBP) [3, 14]: 104 mmHg
Heart rate (HR) [3, 14]: 153 bpm
Diastolic blood pressure (DBP) [3, 15]: 105 mmHg
Heart rate (HR) [3, 15]: 157 bpm
Diastolic blood pressure (DBP) [3, 16]: 107 mmHg
Heart rate (HR) [3, 16]: 154 bpm
Diastolic blood pressure (DBP) [3, 17]: 107 mmHg
Heart rate (HR) [3, 17]: 153 bpm
Diastolic blood pressure (DBP) [3, 18]: 105 mmHg
Heart rate (HR) [3, 18]: 153 bpm
Diastolic blood pressure (DBP) [3, 19]: 107 mmHg
Heart rate (HR) [3, 19]: 159 bpm
Heart rate (HR) ([3]; -30 min, baseline): 144 bpm
Summary: BP [3]: 71-107 mmHg
Summary: BP change [3]: 35 mmHg
Summary: HR change [3]: 38 bpm
Systemic beta-blockade ([3]; four topical applications, 50 μL, 0.25% solution, 60 minute intervals): prolonged systemic beta-blockade
Absorption across the cornea [2]: rapidly absorbed across the cornea into the AH and I-CBC
Area under the concentration time curve (AUC0-240'), AH [2, 4]: 9,022 ng/100 μL/min
Peak level in aqueous humor (AH) [2, 4]: 131 ng/100 μL
Area under the concentration time curve (AUC0-240'), I-CBC [2, 5]: 533 ng/50 mg/min
Peak level in iris-ciliary body complex (I-CBC) ([2]; I-CBC, 0.25% Timolol): 58 ng/50 mg
Area under the concentration time curve (AUC0-240'), cornea [2, 6]: 68,293 ng/50 mg/min
Peak cornea level ([2]; cornea, 50 μL onto cornea, 0.25% Timolol or 0.5% compound 1): 770 ng/50 mg
Tmax [2, 20]: 30 min
Tmax ([2]; iris-ciliary body, I-CBC, 0.25% Timolol, read-out: Time of peak level in I-CBC (converted)): 30 min
Tmax [2, 21]: 5 min

CCCC(=O)NCC(C)(C)NCC(O)COC(=O)c1cc(O)c(O)cc1C (centres unmarked)
Kb [1]: 6.31 nM

CC(C)(CNC(=O)C1CCOC1)NCC(O)COC(=O)c1ccc(O)c(O)c1 (centres unmarked)
Kb [1]: 1.26 nM

CCOc1cc(O)c(O)cc1C(=O)OCC(O)CNC(C)(C)CNC(=O)C(C)C (centres unmarked) [drawing 32]
Kb [1]: 20 nM

Cc1cc(O)c(O)cc1C(=O)OCC(O)CNC(C)(C)CNC(=O)c1ccccc1F (centres unmarked)
Kb [1]: 100 nM

Cc1cc(O)c(O)cc1C(=O)OCC(CNC(C)(C)CNC(=O)C1CCOC1)OC(=O)C(C)(C)C (centres unmarked) [Compound 1]
Effect on diastolic blood pressure response to isoproterenol ([3]; 50 μL at 0.5 or 1.0% solution): without any significant effect
Systemic beta-blockade of isoproterenol-induced increase in heart rate ([3]; 50 μL at 0.5 or 1.0% solution): no significant systemic beta-blockade
Diastolic blood pressure response to isoproterenol ([3]; 50 μL at 0.5 or 1.0% solution): 58-63 mmHg
Effect on diastolic blood pressure response to isoproterenol [3, 22]: no effect
Effect on heart rate response to isoproterenol [3, 22]: no effect
Diastolic blood pressure (DBP) ([3]; 0 min, ISO only): 58 mmHg
Heart rate (HR) ([3]; 0 min, ISO only): 199 bpm
Diastolic blood pressure (DBP) [3, 8]: 56 mmHg
Heart rate (HR) [3, 8]: 195 bpm
Diastolic blood pressure (DBP) [3, 9]: 55 mmHg
Heart rate (HR) [3, 9]: 192 bpm
Diastolic blood pressure (DBP) [3, 10]: 54 mmHg
Heart rate (HR) [3, 10]: 188 bpm
Diastolic blood pressure (DBP) [3, 11]: 55 mmHg
Heart rate (HR) [3, 11]: 189 bpm
Diastolic blood pressure (DBP) [3, 12]: 55 mmHg
Heart rate (HR) [3, 12]: 189 bpm
Diastolic blood pressure (DBP) [3, 13]: 56 mmHg
Heart rate (HR) [3, 13]: 189 bpm
Diastolic blood pressure (DBP) [3, 14]: 57 mmHg
Heart rate (HR) [3, 14]: 190 bpm
Diastolic blood pressure (DBP) [3, 15]: 59 mmHg
Heart rate (HR) [3, 15]: 192 bpm
Diastolic blood pressure (DBP) [3, 16]: 61 mmHg
Heart rate (HR) [3, 16]: 192 bpm
Diastolic blood pressure (DBP) [3, 17]: 60 mmHg
Heart rate (HR) [3, 17]: 192 bpm
Diastolic blood pressure (DBP) [3, 18]: 60 mmHg
Heart rate (HR) [3, 18]: 192 bpm
Diastolic blood pressure (DBP) [3, 19]: 63 mmHg
Heart rate (HR) [3, 19]: 193 bpm
Diastolic blood pressure (DBP) ([3]; -30 min, baseline): 87 mmHg
Heart rate (HR) ([3]; -30 min, baseline): 143 bpm
Summary: BP [3]: 58-63 mmHg
Summary: BP change [3]: 5 mmHg
Summary: HR change [3]: 6 bpm
Systemic beta-blocking activity as compared to Timolol ([3]; conclusion in words): has systemic beta-blocking activity as compared to Timolol
Selectivity of peripheral effects ([3]; high concentration, unlike Timolol): selective for beta-1 (heart rate) responses
Absorption across the cornea [2]: rapidly absorbed across the cornea
Metabolism of compound 1 to compound 2 ([2]; 0.5% compound 1, topical): rapid metabolism of compound 1 to compound 2
AUC in AH relative to AUC of Timolol in AH ([2]; 0.5% compound 1 vs 0.25% Timolol, greater than Timolol): 3 ×
Detectability in I-CBC ([2]; I-CBC, 0.5% compound 1): not detectable
Tmax [2, 20]: 30 min
Tmax [2, 21]: 5 min
